“Also recorded” adds a separate entry of the source.
Tests used:
[1] = tested on: isolated aortic vascular rings; experiment: Developed isometric tension of isolated aortic vascular rings; design: species or system rat
From the text: FIG. 1. Synergistic effects of Angiotensin 1-9 (A1-9) on angiotensin II (AII)-induced vasoconstriction, representative experiment (experiment 9 from Table 3). Data are presented as the mean percentage of the maximal contractile response as defined by full KCl depolarization following treatment with angiotensin peptides for four separate rings used to determine average response at each concentration. Generated tension was plotted against peptide concentration and the resulting concentration-response curves were subjected to regression analysis to determine whether the effects of the combination of A1-9 and angiotensin II produced additivity or synergy.
The effects of graded doses of A1-9 (Fields et al., Peptide Research 4: 95-101 (1991)) or A1-10 (substrate control) alone or in combination (Tallarida, Drug Synergism and Dose-Effect Data Analysis, Chapman and Hall/CRC, New York (2000), Tallarida et al., Life Science 61: PL417-425 (1997)) with angiotensin II were examined on isolated aortic vascular rings developed tension in response to vasoactive substances. Aortas were removed from mature male Sprague-Dawley rats, cleared of connective tissue, and cut into 1 mm rings. Rings were mounted to an isometric force transducer and placed in Krebs-Henseleit solution bubbled with 95% O2/5% CO2 at 37° C. Rings were exposed to a 2 g preload, relaxed and then exposed to various concentrations of angiotensin peptides alone or in combination. Following angiotensin peptide dosing, rings were fully constricted with KCl to determine the maximum degree of vasoconstriction.

[2] = tested on: awake, free-ranging Sprague-Dawley rats; experiment: Arterial pressure in awake, free-ranging Sprague-Dawley rats, intravenous infusion; format: in vivo; conditions: awake rat
Description: FIG. 2. The effect of A1-9 on (A) mean arterial pressure ±SEM in the awake and freely-ranging rat (n=6 rats). Average mean arterial and pulse pressure as well as heart rate data were derived from the last 5 min of a 20 min continuous intravenous infusion period. * indicates a significant difference compared to vehicle-treated rats following analysis of variance and Dunnett's post-hoc test. A1-9 or angiotensin II (AII) continuous infusion doses are in μg/kg/min.
FIG. 3. The effect of A1-9 on angiotensin II-mediated pressor responses in normotensive awake male rats. Data are reported as average mean arterial pressure ±SEM (n=6 rats).
To investigate the effects of A1-9 on arterial pressure, A1-9 was administered to awake, free-ranging Sprague-Dawley rats via indwelling intravenous and arterial catheters. Intravenous infusion of A1-9 (1-3 μg/kg/min) in the awake rat produced a dose-dependent tonic increase in mean arterial pressure to a maximum of approximately 30 mmHg (FIG. 2). […] These responses seen with A1-9 were similar in magnitude to those induced by angiotensin II.
To examine any interactions induced by coadministration of A1-9 and angiotensin II, arterial pressure was monitored in the awake rat after they received either A1-9 (1 μg/kg/min) or saline coinfused with angiotensin II (1-100 ng/kg/min).

ACE-2 = ACE-2 (Homo sapiens, UniProt Q9BYF1); conditions: cited from earlier work
ACE-2, sequence (Q9BYF1 18-805): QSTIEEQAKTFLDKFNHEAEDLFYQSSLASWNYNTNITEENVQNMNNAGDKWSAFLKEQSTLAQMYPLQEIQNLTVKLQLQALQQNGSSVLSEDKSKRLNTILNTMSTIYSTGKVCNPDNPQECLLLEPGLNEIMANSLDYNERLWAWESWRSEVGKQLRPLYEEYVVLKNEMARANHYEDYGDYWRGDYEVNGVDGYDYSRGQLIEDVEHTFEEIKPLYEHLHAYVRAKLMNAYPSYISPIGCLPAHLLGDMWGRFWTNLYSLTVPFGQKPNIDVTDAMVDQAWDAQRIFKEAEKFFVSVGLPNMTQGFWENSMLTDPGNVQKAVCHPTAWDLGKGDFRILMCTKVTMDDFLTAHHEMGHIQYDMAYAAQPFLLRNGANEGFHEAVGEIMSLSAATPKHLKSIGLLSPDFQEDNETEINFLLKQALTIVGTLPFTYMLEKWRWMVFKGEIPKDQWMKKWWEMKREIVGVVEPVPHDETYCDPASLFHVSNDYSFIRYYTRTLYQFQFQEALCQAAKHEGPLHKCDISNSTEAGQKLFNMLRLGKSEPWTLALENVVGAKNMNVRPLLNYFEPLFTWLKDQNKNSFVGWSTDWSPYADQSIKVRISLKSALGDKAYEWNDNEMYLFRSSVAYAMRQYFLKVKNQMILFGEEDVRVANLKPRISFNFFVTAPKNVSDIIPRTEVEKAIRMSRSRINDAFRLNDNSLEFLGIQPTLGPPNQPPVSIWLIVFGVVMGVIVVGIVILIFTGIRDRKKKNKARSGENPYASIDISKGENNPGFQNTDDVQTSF

Compound | potentiation of angiotensin II-mediated vasoconstriction ([1]; combined with angiotensin II, rat aortic rings) | maximum tension developed / effect on vascular tone, peptide alone ([1]; rat aortic rings) | factor by which relative potency of angiotensin II was increased beyond simple addition ([1]; shift of angiotensin II dose-effect curve by A1-9, rat aortic rings, FIG. 1) | effect on pressor response elicited by angiotensin II ([2]; coinfused with angiotensin II (1-100 ng/kg/min), A1-9 at 1 μg/kg/min) | increase in mean arterial pressure, maximum ([2]; intravenous infusion 1-3 μg/kg/min) | blockade of ACE-2 formation of A1-9 from angiotensin I (ACE-2)
angiotensin 1-9 (DRVYIHPFH; Angiotensin 1-9; UniProt P01019 25-33, looked up) [A1-9, nonapeptide formed by removal of the C-terminal leucine from angiotensin I] | superadditive or synergistic interaction | no effect on vascular tone; also recorded: minimal | 11.6 (95% confidence limits of 3.02-44.7) | potentiated the pressor response elicted by angiotensin II in an additive fashion | approximately 30 mmHg | –
C[C@H](CS)C(=O)N1CCC[C@H]1C(=O)O [captopril] | – | – | – | – | – | not blocked
